Assay results: US7951829B2, “Benzimidazole modulators of VR1” (Janssen Pharmaceutica NV, priority 2006, dated 2011)

Biological target: T1, hVR1 (Homo sapiens, UniProt Q8NER1)
T1 construct: expressed in transfected cells; host or cells: HEK293
Assay: Human VR1 (hVR1) Functional Assay (FLIPR intracellular calcium, capsaicin challenge)
Assay type: cell-based
Details: capsaicin 0.030 μM, HEK293 cells expressing hVR1; for inhibition at 1 µM: test concentration 1 μM

T1 sequence (Q8NER1 whole entry): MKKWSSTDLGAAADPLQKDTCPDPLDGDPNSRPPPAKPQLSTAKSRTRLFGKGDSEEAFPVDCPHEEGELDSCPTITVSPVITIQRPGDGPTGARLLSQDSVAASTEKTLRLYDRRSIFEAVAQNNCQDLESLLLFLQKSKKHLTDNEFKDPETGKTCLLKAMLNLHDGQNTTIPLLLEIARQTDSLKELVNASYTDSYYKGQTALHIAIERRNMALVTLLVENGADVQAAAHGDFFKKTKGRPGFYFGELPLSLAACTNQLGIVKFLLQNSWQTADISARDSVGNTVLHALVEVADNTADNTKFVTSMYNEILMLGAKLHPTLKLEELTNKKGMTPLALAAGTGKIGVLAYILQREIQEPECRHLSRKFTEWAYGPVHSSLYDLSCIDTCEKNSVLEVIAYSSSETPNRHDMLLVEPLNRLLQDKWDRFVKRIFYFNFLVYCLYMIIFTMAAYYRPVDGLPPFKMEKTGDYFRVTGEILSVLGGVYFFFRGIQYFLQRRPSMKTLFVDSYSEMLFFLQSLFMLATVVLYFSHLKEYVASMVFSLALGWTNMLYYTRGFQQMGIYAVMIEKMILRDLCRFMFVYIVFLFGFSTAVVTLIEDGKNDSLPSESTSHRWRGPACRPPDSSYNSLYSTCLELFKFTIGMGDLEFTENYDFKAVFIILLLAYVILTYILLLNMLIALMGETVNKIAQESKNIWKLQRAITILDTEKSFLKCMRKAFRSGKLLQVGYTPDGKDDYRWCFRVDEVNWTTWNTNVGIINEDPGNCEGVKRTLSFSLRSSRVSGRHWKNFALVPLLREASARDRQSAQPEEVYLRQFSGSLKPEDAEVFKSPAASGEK

| SMILES | IC50 | inhibition at 1 µM | inhibition at 5 µM (test concentration 5 μM (footnote 1)) |
| --- | --- | --- | --- |
| NS(=O)(=O)c1ccccc1-c1ccc2[nH]c(/C=C/c3ccc(F)c(Cl)c3)nc2c1 [Cpd 432, (E)-2-{2-[2-(3-chloro-4-fluoro-phenyl)-vinyl]-1H-benzimidazol-5-yl}-benzenesulfonamide] | 0.015 µM | 98% | – |
| CC(=O)Nc1ccccc1-c1ccc2[nH]c(/C=C/c3ccc(F)c(F)c3)nc2c1 [Cpd 24, (E)-N-(2-{2-[2-(3,4-difluoro-phenyl)-vinyl]-1H-benzimidazol-5-yl}-phenyl)-acetamide] | – | 8% | – |
| CC(C)(O)c1ccccc1-c1ccc2[nH]c(C3CC3c3ccc(Cl)cc3)nc2c1 (stereo not drawn) [Cpd 198, 2-(2-{2-[2-(4-chloro-phenyl)-cyclopropyl]-1H-benzimidazol-5-yl}-phenyl)-propan-2-ol] | 0.01 µM | 95% | – |
| NS(=O)(=O)c1ccccc1-c1ccc2[nH]c(/C=C/c3ccc(Cl)c(Cl)c3)nc2c1 [Cpd 427, (E)-2-{2-[2-(3,4-dichloro-phenyl)-vinyl]-1H-benzimidazol-5-yl}-benzenesulfonamide] | 0.013 µM | 98% | – |
| NS(=O)(=O)c1ccc(C(F)(F)F)cc1-c1ccc2[nH]c(/C=C/c3ccc(C(F)(F)F)cc3)nc2c1 [Cpd 444, (E)-4-trifluoromethyl-2-{2-[2-(4-trifluoromethyl-phenyl)-vinyl]-1H-benzimidazol-5-yl}-benzenesulfonamide] | 0.028 µM | 98% | – |
| NS(=O)(=O)c1ccccc1-c1ccc2[nH]c(/C=C/c3ccccc3C(F)(F)F)nc2c1 [Cpd 364, (E)-2-{2-[2-(2-trifluoromethyl-phenyl)-vinyl]-1H-benzimidazol-5-yl}-benzenesulfonamide] | 0.065 µM | 97% | – |
| CCOc1ccc(/C=C/c2nc3cc(-c4ccccc4S(N)(=O)=O)ccc3[nH]2)cc1 [Cpd 440, (E)-2-{2-[2-(4-ethoxy-phenyl)-vinyl]-1H-benzimidazol-5-yl}-benzenesulfonamide] | 0.04 µM | 98% | – |
| CC(O)c1ccccc1-c1ccc2[nH]c(/C=C/c3ccc(S(=O)(=O)C(F)(F)F)cc3)nc2c1 (stereo not drawn) [Cpd 45, (E)-1-(2-{2-[2-(4-trifluoromethanesulfonyl-phenyl)-vinyl]-1H-benzimidazol-5-yl}-phenyl)-ethanol] | 0.016 µM | 100% | – |
| CC(C)(C)c1ccc(/C=C/c2nc3cc(-c4ccccc4CO)ccc3[nH]2)cc1 [Cpd 12, (E)-(2-{2-[2-(4-tert-butyl-phenyl)-vinyl]-1H-benzimidazol-5-yl}-phenyl)-methanol] | 0.01 µM | 100% | – |
| CCOc1cccc(/C=C/c2nc3cc(-c4ccccc4S(N)(=O)=O)ccc3[nH]2)c1 [Cpd 425, (E)-2-{2-[2-(3-ethoxy-phenyl)-vinyl]-1H-benzimidazol-5-yl}-benzenesulfonamide] | – | 2% | – |
| NS(=O)(=O)c1ccccc1-c1ccc2[nH]c(CCc3cc(F)c(F)cc3F)nc2c1 [Cpd 385, 2-{2-[2-(2,4,5-trifluoro-phenyl)-ethyl]-1H-benzimidazol-5-yl}-benzenesulfonamide] | 0.021 µM | 97% | – |
| CC(=O)Nc1ccc(-c2ccc3[nH]c(/C=C/c4ccc(C(C)(C)C)cc4)nc3c2)cc1 [Cpd 8, (E)-N-(4-{2-[2-(4-tert-butyl-phenyl)-vinyl]-1H-benzimidazol-5-yl}-phenyl)-acetamide] | – | 10% | – |
| NS(=O)(=O)c1ccccc1-c1ccc2[nH]c(CCc3ccc(S(=O)(=O)C(F)(F)F)cc3)nc2c1 [Cpd 131, 2-{2-[2-(4-trifluoromethanesulfonyl-phenyl)-ethyl]-1H-benzimidazol-5-yl}-benzenesulfonamide] | 0.031 µM | 96% | – |
| NS(=O)(=O)c1ccccc1-c1ccc2[nH]c(/C=C/c3ccccc3Br)nc2c1 [Cpd 366, (E)-2-{2-[2-(2-bromo-phenyl)-vinyl]-1H-benzimidazol-5-yl}-benzenesulfonamide] | 0.035 µM | 99% | – |
| CNS(=O)(=O)c1ccccc1-c1ccc2[nH]c(/C=C/c3ccc(F)c(Cl)c3)nc2c1 [Cpd 321, (E)-2-{2-[2-(3-chloro-4-fluoro-phenyl)-vinyl]-1H-benzimidazol-5-yl}-N-methyl-benzenesulfonamide] | 0.018 µM | 100% | – |
| CC(=O)c1ccccc1-c1ccc2[nH]c(/C=C/c3ccc(SC(F)(F)F)cc3)nc2c1 [Cpd 39, (E)-1-(2-{2-[2-(4-trifluoromethylsulfanyl-phenyl)-vinyl]-1H-benzimidazol-5-yl}-phenyl)-ethanone] | 0.2 µM | 98% | – |
| CNS(=O)(=O)c1ccccc1-c1ccc2[nH]c(/C=C/c3ccc(C(F)(F)F)cc3F)nc2c1 [Cpd 320, (E)-2-{2-[2-(2-fluoro-4-trifluoromethyl-phenyl)-vinyl]-1H-benzimidazol-5-yl}-N-methyl-benzenesulfonamide] | 0.013 µM | 100% | – |
| CC(C)(C)c1ccc(CCc2nc3cc(-c4ccc(O)cc4)ccc3[nH]2)cc1 [Cpd 34, 4-{2-[2-(4-tert-butyl-phenyl)-ethyl]-1H-benzimidazol-5-yl}-phenol] | – | – | 75% |

| SMILES | IC50 | inhibition at 1 µM | inhibition at 5 µM (test concentration 5 μM (footnote 1)) |
| --- | --- | --- | --- |
| NS(=O)(=O)c1ccccc1-c1ccc2[nH]c(CCc3ccc(F)cc3F)nc2c1 [Cpd 392, 2-{2-[2-(2,4-difluoro-phenyl)-ethyl]-1H-benzimidazol-5-yl}-benzenesulfonamide] | 0.01 µM | 97% | – |
| Cc1cccc(-c2ccc3[nH]c(CCCc4ccc(C(C)(C)C)cc4)nc3c2)c1 [Cpd 30, 2-[3-(4-tert-butyl-phenyl)-propyl]-5-m-tolyl-1H-benzimidazole] | – | 10% | – |
| NS(=O)(=O)c1ccccc1-c1ccc2[nH]c(C3CC3c3ccc(C(F)(F)F)cc3)nc2c1 (stereo not drawn) [Cpd 190, 2-{2-[2-(4-trifluoromethyl-phenyl)-cyclopropyl]-1H-benzimidazol-5-yl}-benzenesulfonamide] | 0.038 µM | 94% | – |
| NS(=O)(=O)c1ccccc1-c1ccc2[nH]c(CCc3cc(F)cc(C(F)(F)F)c3)nc2c1 [Cpd 421, 2-{2-[2-(3-fluoro-5-trifluoromethyl-phenyl)-ethyl]-1H-benzimidazol-5-yl}-benzenesulfonamide] | 0.01 µM | 95% | – |
| CS(=O)(=O)Nc1ccccc1-c1ccc2[nH]c(/C=C/c3ccc(Cl)cc3)nc2c1 [Cpd 77, (E)-N-(2-{2-[2-(4-chloro-phenyl)-vinyl]-1H-benzimidazol-5-yl}-phenyl)-methanesulfonamide] | 0.076 µM | 100% | – |
| NS(=O)(=O)c1cc(C(F)(F)F)ccc1-c1ccc2[nH]c(/C=C/c3ccc(C(F)(F)F)cc3)nc2c1 [Cpd 446, (E)-5-trifluoromethyl-2-{2-[2-(4-trifluoromethyl-phenyl)-vinyl]-1H-benzimidazol-5-yl}-benzenesulfonamide] | 0.076 µM | 97% | – |
| CNS(=O)(=O)c1ccccc1-c1ccc2[nH]c(/C=C/c3cc(F)ccc3F)nc2c1 [Cpd 326, (E)-2-{2-[2-(2,5-difluoro-phenyl)-vinyl]-1H-benzimidazol-5-yl}-N-methyl-benzenesulfonamide] | 0.157 µM | 89% | – |
| CNS(=O)(=O)c1ccccc1-c1ccc2[nH]c(/C=C/c3ccc(C(C)=O)cc3)nc2c1 [Cpd 456, (E)-2-{2-[2-(4-acetyl-phenyl)-vinyl]-1H-benzimidazol-5-yl}-N-methyl-benzenesulfonamide] | 0.045 µM | 100% | – |
| NS(=O)(=O)c1ccccc1-c1ccc2[nH]c(/C=C/c3ccc(F)c(Br)c3)nc2c1 [Cpd 439, (E)-2-{2-[2-(3-bromo-4-fluoro-phenyl)-vinyl]-1H-benzimidazol-5-yl}-benzenesulfonamide] | 0.023 µM | 97% | – |
| NS(=O)(=O)c1cc(C(F)(F)F)ccc1-c1ccc2[nH]c(CCc3ccc(C(F)(F)F)cc3)nc2c1 [Cpd 447, 5-trifluoromethyl-2-{2-[2-(4-trifluoromethyl-phenyl)-ethyl]-1H-benzimidazol-5-yl}-benzenesulfonamide] | 0.044 µM | 98% | – |
| CS(=O)(=O)c1ccc(CCc2nc3cc(-c4ccccc4S(N)(=O)=O)ccc3[nH]2)cc1 [Cpd 145, 2-{2-[2-(4-methanesulfonyl-phenyl)-ethyl]-1H-benzimidazol-5-yl}-benzenesulfonamide] | – | 19% | – |
| OCc1ccccc1-c1cc2nc(/C=C/c3ccc(C(F)(F)F)cc3)[nH]c2cc1C(F)(F)F [Cpd 58, (E)-(2-{6-trifluoromethyl-2-[2-(4-trifluoromethyl-phenyl)-vinyl]-1H-benzimidazol-5-yl}-phenyl)-methanol] | 0.095 µM | 87% | – |
| NS(=O)(=O)c1ccccc1-c1ccc2[nH]c(/C=C/c3ccc(Cl)cc3F)nc2c1 [Cpd 428, (E)-2-{2-[2-(4-chloro-2-fluoro-phenyl)-vinyl]-1H-benzimidazol-5-yl}-benzenesulfonamide] | 0.007 µM | 100% | – |
| Cc1ccc(/C=C/c2nc3cc(-c4ccccc4NS(C)(=O)=O)ccc3[nH]2)cc1 [Cpd 412, (E)-N-{2-[2-(2-p-tolyl-vinyl)-1H-benzimidazol-5-yl]-phenyl}-methanesulfonamide] | 0.19 µM | 86% | – |
| CNS(=O)(=O)c1ccccc1-c1ccc2[nH]c(/C=C/c3ccc(F)c(F)c3)nc2c1 [Cpd 329, (E)-2-{2-[2-(3,4-difluoro-phenyl)-vinyl]-1H-benzimidazol-5-yl}-N-methyl-benzenesulfonamide] | 0.027 µM | 98% | – |
| NS(=O)(=O)c1ccccc1-c1ccc2[nH]c(/C=C/c3c(F)cccc3Cl)nc2c1 [Cpd 438, (E)-2-{2-[2-(2-chloro-6-fluoro-phenyl)-vinyl]-1H-benzimidazol-5-yl}-benzenesulfonamide] | 0.071 µM | 96% | – |
| FC(F)(F)c1ccc(/C=C/c2nc3cc(-c4ccccc4C(F)(F)F)ccc3[nH]2)cc1 [Cpd 487, (E)-5-(2-trifluoromethyl-phenyl)-2-[2-(4-trifluoromethyl-phenyl)-vinyl]-1H-benzimidazole] | – | 20% | – |
